We go through 30 molecules from ChEMBL document CHEMBL5506036, “Exploring the Structural Attributes of Yoda1 for the Development of New-Generation Piezo1 Agonist Yaddle1 as a Vaccine Adjuvant Targeting Optimal T Cell Activation” (J Med Chem, 2024).

In data set [1] the target is T1, Piezo-type mechanosensitive ion channel component 1 (Homo sapiens, UniProt Q92508). Put plainly: Agonist activity at human PIEZO1 overexpressing HEK293-A cells co-expressing mCherry-piezo1 assessed as fold change in calcium influx at 1 uM by fluo-3 based real-time flow cytometric analysis. Type of data set: cell-based. Background: In flow cytometry, cells or beads pass a laser one at a time.

Data set [2] concerns the target T1, Piezo-type mechanosensitive ion channel component 1. Put plainly: Agonist activity at human PIEZO1 overexpressing HEK293-A cells co-expressing mCherry-piezo1 assessed as induction of calcium influx by fluo-3 based real-time flow cytometric analysis. Type of data set: cell-based.
Data set [3] has the same target. Put plainly: Agonist activity at human PIEZO1 overexpressing HEK293-A cells co-expressing mCherry-piezo1 assessed as fold change in calcium influx at 15 uM by fluo-3 based real-time flow cytometric analysis. Type of data set: cell-based.
For data set [4] the target is unchanged. Put plainly: Agonist activity at human PIEZO1 overexpressing HEK293-A cells co-expressing mCherry-piezo1 assessed as fold change in calcium influx at 20 uM by fluo-3 based real-time flow cytometric analysis. Type of data set: cell-based.
Data set [5] shares this target. Put plainly: Agonist activity at human PIEZO1 overexpressing HEK293-A cells co-expressing mCherry-piezo1 assessed as induction of calcium influx by measuring maximum efficacy in fold change by fluo-3 based real-time flow cytometric analysis. Type of data set: cell-based. As to conditions: filed as agonist.
The target is the same in data set [6]. Put plainly: Agonist activity at human PIEZO1 overexpressing HEK293-A cells co-expressing mCherry-piezo1 assessed as fold change in calcium influx at 0.5 uM by fluo-3 based real-time flow cytometric analysis. Type of data set: cell-based.
Data set [7] shares this target. Put plainly: Agonist activity at human PIEZO1 overexpressing HEK293-A cells co-expressing mCherry-piezo1 assessed as fold change in calcium influx at 5 uM by fluo-3 based real-time flow cytometric analysis. Type of data set: cell-based.
The target is the same in data set [8]. Put plainly: Agonist activity at PIEZO1 in human CD4+ T cell assessed as fold increase in intracellular calcium influx measured for 30 mins by flow cytometry analysis. Type of data set: cell-based. Background: Calcium flux is commonly read through the fluorescence of an indicator in the cells.
For data set [9] the target is unchanged. Put plainly: Agonist activity at human PIEZO1 overexpressing HEK293-A cells co-expressing mCherry-piezo1 assessed as fold change in calcium influx at 10 uM by fluo-3 based real-time flow cytometric analysis. Type of data set: cell-based.
Data set [10] has the same target. Put plainly: Agonist activity at human PIEZO1 overexpressing HEK293-A cells co-expressing mCherry-piezo1 assessed as fold change in calcium influx at 0.1 uM by fluo-3 based real-time flow cytometric analysis. Type of data set: cell-based.
The nature of data set [11]: Kinetic aqueous solubility of compound in PBS at pH 7.4 measured after 24 hrs by HPLC-UV analysis. Type of data set: physicochemical. As to conditions: read-out: Kinetic_solubility.

Converted amounts (≈) assume the structure as drawn.

T1 sequence (Q92508 whole entry): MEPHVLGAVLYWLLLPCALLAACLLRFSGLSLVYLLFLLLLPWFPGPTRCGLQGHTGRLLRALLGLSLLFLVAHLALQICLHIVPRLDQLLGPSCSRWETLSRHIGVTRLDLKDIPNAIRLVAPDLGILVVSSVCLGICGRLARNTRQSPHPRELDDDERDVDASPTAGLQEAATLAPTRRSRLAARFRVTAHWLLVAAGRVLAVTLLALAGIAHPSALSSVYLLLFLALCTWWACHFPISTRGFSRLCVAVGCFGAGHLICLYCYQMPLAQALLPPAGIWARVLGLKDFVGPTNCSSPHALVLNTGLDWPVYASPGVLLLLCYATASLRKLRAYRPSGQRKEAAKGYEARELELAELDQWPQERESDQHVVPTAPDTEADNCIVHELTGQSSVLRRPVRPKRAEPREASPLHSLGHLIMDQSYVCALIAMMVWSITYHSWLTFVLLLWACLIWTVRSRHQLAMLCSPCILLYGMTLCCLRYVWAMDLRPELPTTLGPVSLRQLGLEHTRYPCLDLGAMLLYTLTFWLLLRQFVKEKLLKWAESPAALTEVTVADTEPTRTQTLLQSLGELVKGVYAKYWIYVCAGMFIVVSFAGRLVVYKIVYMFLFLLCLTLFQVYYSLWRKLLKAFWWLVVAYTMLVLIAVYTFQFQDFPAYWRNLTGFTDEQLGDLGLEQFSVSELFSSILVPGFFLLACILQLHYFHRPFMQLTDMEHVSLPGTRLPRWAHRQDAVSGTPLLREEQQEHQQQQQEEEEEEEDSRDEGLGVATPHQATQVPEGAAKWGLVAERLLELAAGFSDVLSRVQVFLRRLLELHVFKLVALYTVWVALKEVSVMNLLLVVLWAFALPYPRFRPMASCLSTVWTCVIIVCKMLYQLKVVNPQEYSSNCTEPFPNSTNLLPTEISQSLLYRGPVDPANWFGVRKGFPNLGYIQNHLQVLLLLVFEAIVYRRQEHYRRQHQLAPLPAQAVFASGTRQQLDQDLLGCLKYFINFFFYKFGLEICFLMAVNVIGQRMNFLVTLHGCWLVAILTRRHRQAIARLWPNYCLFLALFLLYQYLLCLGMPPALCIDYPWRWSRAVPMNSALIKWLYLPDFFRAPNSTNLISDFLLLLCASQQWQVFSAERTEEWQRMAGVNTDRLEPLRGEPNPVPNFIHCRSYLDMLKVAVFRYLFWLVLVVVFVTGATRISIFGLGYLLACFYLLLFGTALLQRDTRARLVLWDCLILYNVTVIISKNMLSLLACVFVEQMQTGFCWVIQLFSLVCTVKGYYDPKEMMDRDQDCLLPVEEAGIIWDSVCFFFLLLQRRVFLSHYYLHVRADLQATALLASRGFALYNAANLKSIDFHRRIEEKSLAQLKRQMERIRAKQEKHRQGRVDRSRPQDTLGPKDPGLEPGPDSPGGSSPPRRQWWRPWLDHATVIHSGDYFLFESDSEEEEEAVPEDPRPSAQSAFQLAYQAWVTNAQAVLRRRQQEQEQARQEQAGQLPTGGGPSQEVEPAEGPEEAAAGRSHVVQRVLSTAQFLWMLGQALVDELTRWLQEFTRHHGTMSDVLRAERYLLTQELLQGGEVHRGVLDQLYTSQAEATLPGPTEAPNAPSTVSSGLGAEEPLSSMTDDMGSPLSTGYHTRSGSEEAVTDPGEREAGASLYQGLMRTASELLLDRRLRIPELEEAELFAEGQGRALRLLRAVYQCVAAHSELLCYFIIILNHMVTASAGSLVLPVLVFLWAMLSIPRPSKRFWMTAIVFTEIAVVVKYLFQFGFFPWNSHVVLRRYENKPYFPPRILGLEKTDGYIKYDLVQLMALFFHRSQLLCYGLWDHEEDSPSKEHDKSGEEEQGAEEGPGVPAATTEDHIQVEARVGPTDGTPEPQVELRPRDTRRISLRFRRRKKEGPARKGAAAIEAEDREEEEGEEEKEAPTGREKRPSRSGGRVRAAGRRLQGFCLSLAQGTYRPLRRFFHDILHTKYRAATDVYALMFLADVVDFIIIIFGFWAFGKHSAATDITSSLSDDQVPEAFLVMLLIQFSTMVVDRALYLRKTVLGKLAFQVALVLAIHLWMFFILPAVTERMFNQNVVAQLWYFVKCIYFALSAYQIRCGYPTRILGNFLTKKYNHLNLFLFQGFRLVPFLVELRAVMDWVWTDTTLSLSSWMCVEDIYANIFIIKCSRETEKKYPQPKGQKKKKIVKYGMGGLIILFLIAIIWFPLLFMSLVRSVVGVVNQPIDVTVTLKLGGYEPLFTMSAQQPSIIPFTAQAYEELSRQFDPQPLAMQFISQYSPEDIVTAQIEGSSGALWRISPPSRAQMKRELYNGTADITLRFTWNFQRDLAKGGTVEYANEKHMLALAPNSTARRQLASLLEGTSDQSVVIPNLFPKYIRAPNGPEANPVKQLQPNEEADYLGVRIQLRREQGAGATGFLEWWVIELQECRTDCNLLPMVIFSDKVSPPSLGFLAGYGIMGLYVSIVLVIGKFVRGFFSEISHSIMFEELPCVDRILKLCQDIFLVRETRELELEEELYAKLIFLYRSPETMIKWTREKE

In general, EC50 refers to the concentration that produces a half-maximal response. Regarding `Clc1cccc(Br)c1CSc1nnc(-c2cnccn2)o1`, the fold change (FC) in [1] is more than 1.2; in data set [3], less than 1.2; in data set [4], more than 1.2; in data set [5], 2.9; in data set [6], more than 1.2; in [7] it was more than 1.2. For the same molecule, the fold change (FC) in data set [8] is more than 2; in data set [9], more than 1.2; in data set [10], less than 1.2. The half-maximal effective concentration (EC50) in data set [2] came out at 1040 nM.

In the case of `FC(F)(F)c1ccc(Br)c(CSc2nnc(-c3cnccn3)o2)c1`, the fold change (FC) in [1] is more than 1.2; in [3], more than 1.2; in data set [4], more than 1.2; in [5], 2.3; in data set [6] it was more than 1.2; in data set [7], more than 1.2. Moreover, the fold change (FC) in data set [9] is more than 1.2; in data set [10] it was less than 1.2. Further, the EC50 in data set [2] is 600 nM.

For `O=c1oc(-c2cnccn2)nn1Cc1ccccc1Cl`, the fold change (FC) in data set [1], in data set [3], in [4], in data set [6], in data set [7] and in data set [9] was less than 1.2 each time. Further, the fold change (FC) in data set [10] was less than 1.2.

As for `Clc1ccccc1CNc1nnc(-c2cnccn2)o1`, the fold change (FC) in [1], in data set [3], in data set [4], in data set [6], in data set [7] and in data set [9] was less than 1.2 in each case. Besides, in data set [10], the fold change (FC) is less than 1.2.

Consider `Ic1ccccc1CSc1nnc(-c2cnccn2)o1`, for which the fold change (FC) in [3] and in [4] was less than 1.2 each time.

In the case of `c1ccc(CSc2nnc(-c3cnccn3)o2)cc1`, the fold change (FC) in data set [3] and in data set [4] was less than 1.2 each time.

On to `Fc1cccc(F)c1CSc1nnc(-c2cnccn2)o1`, for which the fold change (FC) in data set [4] and in data set [10] was less than 1.2 throughout.

In the case of `Fc1ccccc1CSc1nnc(-c2cnccn2)o1`, the fold change (FC) in [3] and in data set [4] was less than 1.2 each time.

In the case of `O=[N+]([O-])c1ccccc1CSc1nnc(-c2cnccn2)o1`, the fold change (FC) in [3] and in data set [4] was less than 1.2 throughout.

On to `Clc1ccccc1CSc1nnc(-c2ccc[nH]2)o1`, for which the fold change (FC) in data set [1], in data set [3], in data set [4], in data set [6], in data set [7] and in data set [9] was less than 1.2 in each case. Also, the fold change (FC) in data set [10] is less than 1.2.

`FC(F)(F)c1cccc(Br)c1CSc1nnc(-c2cnccn2)o1`: the fold change (FC) is more than 1.2 in data set [1]; more than 1.2 in [3]; more than 1.2 in [4]; 2.7 in data set [5]; more than 1.2 in data set [6]; more than 1.2 in data set [7]. Also, the fold change (FC) in data set [9] and in data set [10] was more than 1.2 each time. Besides, the EC50 in [2] was determined as 460 nM.

For the molecule `O=C([O-])Cc1ccccc1Nc1c(Cl)cccc1Cl.[Na+]` [DICLOFENAC SODIUM], the solubility kinetic at 24 h in data set [11] stood at 205 µM.

With `O=c1oc(-c2cnccn2)nn1Cc1c(Cl)cccc1Cl`, the fold change (FC) in data set [1], in data set [3], in [4], in data set [6], in [7] and in data set [9] was less than 1.2 in each case. Further, the fold change (FC) in data set [10] is less than 1.2.

On to `N#Cc1ccccc1CSc1nnc(-c2cnccn2)o1`, for which the fold change (FC) in [3] and in [4] was less than 1.2 each time.

Regarding `Clc1cccc(Cl)c1CSc1nnc(-c2cnccn2)o1`, the fold change (FC) in [1] is more than 1.2; in [3], more than 1.2; in [4], more than 1.2; in data set [5] it was 2.07; in data set [6], less than 1.2; in data set [7], more than 1.2. The figures for the fold change (FC) in data set [8], in [9] and in data set [10] were more than 2, more than 1.2 and less than 1.2, respectively. For the same molecule, the EC50 in data set [2] was determined as 1340 nM.

In the case of `Brc1ccccc1CSc1nnc(-c2cnccn2)o1`, the fold change (FC) in data set [3] and in [4] was less than 1.2 in each case.

On to `Clc1cccc(Cl)c1CSc1nnc(-c2ccc[nH]2)o1`, for which the fold change (FC) in [1], in data set [3], in [4], in data set [6], in data set [7] and in [9] was less than 1.2 each time. In data set [10], the fold change (FC) was less than 1.2.

Consider `Clc1ccc(CSc2nnc(-c3cnccn3)o2)c(Cl)c1`, for which the fold change (FC) in [4] and in data set [10] was less than 1.2 in each case.

Regarding `FC(F)(F)c1ccc(Cl)cc1CSc1nnc(-c2cnccn2)o1`, the fold change (FC) is more than 1.2 in data set [1]; more than 1.2 in [3]; more than 1.2 in [4]; 1.7 in data set [5]; more than 1.2 in data set [6]; more than 1.2 in data set [7]. Also, the fold change (FC) is more than 1.2 in [9] and less than 1.2 in data set [10]. In addition, the half-maximal effective concentration (EC50) in [2] is 550 nM.

On to `Clc1ccccc1CSc1nnc(-c2cnccn2)o1`, for which the fold change (FC) in data set [3] and in data set [4] was less than 1.2 each time.

On to `Cc1ccccc1CSc1nnc(-c2cnccn2)o1`, for which the fold change (FC) in data set [3] and in data set [4] was less than 1.2 each time.

On to `Brc1ccc(Br)c(CSc2nnc(-c3cnccn3)o2)c1`, for which the fold change (FC) in data set [1] is less than 1.2; in data set [3], more than 1.2; in [4], more than 1.2; in [5], 1.9; in data set [6] it was less than 1.2; in data set [7] it was less than 1.2. Moreover, the fold change (FC) in [9] was more than 1.2; in data set [10], less than 1.2. Further, the EC50 in data set [2] came to 9900 nM.

Consider `Clc1cccc(CSc2nnc(-c3cnccn3)o2)c1Cl`, for which the fold change (FC) in data set [4] and in data set [10] was less than 1.2 throughout.

For the molecule `Brc1cccc(Br)c1CSc1nnc(-c2cnccn2)o1`, the fold change (FC) in data set [1] was more than 1.2; in data set [3], less than 1.2; in data set [4] it was more than 1.2; in data set [5], 2.5; in data set [6], more than 1.2; in [7], more than 1.2. In addition, the fold change (FC) in [8] was more than 2; in data set [9], more than 1.2; in data set [10], less than 1.2. Besides, in data set [2], the EC50 is 2100 nM.

Turning to `Fc1cccc(Cl)c1CSc1nnc(-c2cnccn2)o1`, the fold change (FC) in [1] is less than 1.2; in data set [3], less than 1.2; in data set [4], more than 1.2; in data set [5], 1.55; in data set [6], less than 1.2; in data set [7], more than 1.2. Moreover, the fold change (FC) in [9] is more than 1.2; in data set [10] it was less than 1.2. For the same molecule, in data set [2], the concentration giving a half-maximal response (EC50) was 1090 nM.

On to `CC/C(=C(/CC)c1ccc(O)cc1)c1ccc(O)cc1` [DIETHYLSTILBESTROL], for which the solubility kinetic at 24 h in data set [11] was 14.4 µM (≈ 3.85 µg/mL).

Take `Clc1cccc(Cl)c1CSc1nnc(-c2cnccn2)s1`: the fold change (FC) in data set [1] is more than 1.2; in data set [3] it was more than 1.2; in data set [4] it was more than 1.2; in data set [5], 2.4; in data set [6] it was more than 1.2; in [7] it was more than 1.2. Moreover, the results for the fold change (FC) in data set [9] and in [10] were more than 1.2 and less than 1.2, respectively. Besides, the EC50 in data set [2] is 500 nM. Besides, the solubility kinetic at 24 h in data set [11] was 1.22 µM (≈ 0.433 µg/mL).

Take `Clc1cccc(Cl)c1CNc1nnc(-c2cnccn2)o1`: the fold change (FC) in [1], in data set [3], in data set [4], in [6], in data set [7] and in data set [9] was less than 1.2 throughout. In data set [10], the fold change (FC) was less than 1.2.

Take `Clc1ccc(Cl)c(CSc2nnc(-c3cnccn3)o2)c1`: the fold change (FC) in [1] was less than 1.2; in data set [3] it was more than 1.2; in data set [4], more than 1.2; in [5], 1.25; in data set [6], less than 1.2; in data set [7], less than 1.2. Moreover, the fold change (FC) in data set [9] was more than 1.2; in data set [10] it was less than 1.2. In addition, the 50% effective concentration (EC50) in [2] was found to be 570 nM.

On to `FC(F)(F)c1ccc(Cl)c(CSc2nnc(-c3cnccn3)o2)c1`, for which the fold change (FC) in data set [1] was more than 1.2; in data set [3] it was more than 1.2; in data set [4], more than 1.2; in [5], 2.3; in data set [6] it was more than 1.2; in [7] it was more than 1.2. The fold change (FC) in data set [9] is more than 1.2; in data set [10] it was less than 1.2. The half-maximal effective concentration (EC50) in data set [2] was 880 nM.
